The text below walks through data of publication PMC4815068, “A phase I study of high-dose rosuvastatin with standard dose erlotinib in patients with advanced solid malignancies” (Journal of Translational Medicine, 2016).

In series [1] the test system is patients with solid tumors. Conditions: weekly regimen, lovastatin monotherapy; cited from earlier work.
The subject of a further series is recurrent SCC patients. Particulars: cited from earlier work.
The nature of series [2]: Pharmacokinetic analysis of serum levels by LC/MS/MS. How it is done:
Pharmacokinetic analysis of erlotinib serum levels was undertaken at day 6 (erlotinib alone) and at day 14 (erlotinib and 1 mg/kg/day rosuvastatin treatments) and rosuvastatin at the day 14 timepoint of cycle 1 in 6 study patients (Schedule A). On day 6 and 14 serum erlotinib levels and day 14 serum rosuvastatin levels were determined at 2 h intervals for a full 24 h after drug treatments. The analysis of rosuvastatin and erlotinib was performed by a validated liquid chromatography mass spectrometry/mass spectrometry (LC/MS/MS) method. Protein precipitation (plasma: 50/50 acetonitrile/[…] 1:2) was used for sample preparation before injecting to HPLC for separation. Rosuvastatin, erlotinib and internal standard (IS), 6,7-Dimethyl-2,3-di(2-pyridyl)-quinoxaline (DMDPQ) was eluted by HPLC (Accela, Thermo) using a gradient mobile phase [0.2 % Formic acid (V:V), and 100 % methanol]. […] Detection was done by tandem Mass spectrometer (TSQ Quantum Access MAX, Thermo) with electrospray ionization in positive mode. The multiple reaction monitoring (MRM) was be used to detect specific precursor ion to product ion transitions for rosuvastatin (m/s 482.3/258.1), erlotinib (m/s 394.3/336.2), and IS (m/s 313.2/91.2), respectively. Xcalibur and TSQ Tune master software (Thermo) was used as the system controller and integrator.

Another series relates to NSCLC patients. On the set-up: method as in PMID 21411446. Conditions: hypercholesterolemia dose of simvastatin daily with standard dose gefitinib, SCC patients; cited from earlier work.
A further series relates to advanced solid tumours. The series can be described thus: Tumor response (RECIST) and days on study. It counts as in vivo, human. Here is the method: Physical examinations occurred at the start of each cycle and radiological tumor evaluations were completed after every 2 cycles. Tumor response was assessed using response evaluation criteria in solid tumors (RECIST) criteria. […] In these cases, the patient went off protocol treatment. […] Similar strategies were employed for other toxicities as well. […] This study was conducted according to Good Clinical Practice.

Series [3] in a line: On-study laboratory evaluations (CPK, cholesterol, LDL, HDL). It counts as in vivo, human. Here is the method: Patients had weekly laboratory evaluations for hematogical, hepatic and renal functions and biochemical changes including creatine and creatine phosphokinase (CPK) and fasting total cholesterol, HDL and LDL during cycle 1 and at the start of each subsequent cycle. Physical examinations occurred at the start of each cycle and radiological tumor evaluations were completed after every 2 cycles. Tumor response was assessed using response evaluation criteria in solid tumors (RECIST) criteria.

In series [4] the test system is patients with advanced solid tumours.
Description: This was a single-center, phase I open-label study to determine the safety and RPTD of rosuvastatin in combination with the standard clinical dose of erlotinib (150 mg/day) in patients with advanced solid tumours. […] Eight cohorts from 1 to 8 mg/kg/day rosuvastatin given concurrently with standard dose erlotinb in 28-day cycles were planned. […] Patients received therapy until evidence of disease progression, the development of serious or unmanageable adverse events (SAE), or until study withdrawal. Clinically or radiological documented disease and an ECOG performance status of 0, 1 or 2 was also required. All study patients had adequate hematogical, hepatic and renal functions at baseline. Adequate hematological function was defined as hemoglobin ≥90 g/L, absolute granulocyte count ≥1.5 × 10^9/L and platelet counts ≥100 × 10^9/L. Biochemical parameters for hepatic function included; total bilirubin <1.5× the upper limit of normal (ULN) and ALT/AST <1.5× ULN. […] Any anticholesterol agents were discontinued at least 7 days prior to starting the trial.
Erlotinib was provided by Roche Canada and was administered orally in tablet form at a standard daily dose of 150 mg. […] The starting dose of rosuvastatin was 1 mg/kg/day with the dose of rosuvastatin increasing in a step-wise manner in escalating doses of 1 mg/kg/day. […] During cycle-1 of the dose escalation, treatment with rosuvastin was administered as follows: 1 week off, then daily for 2 weeks, then 1 week off. […] Doses were rounded to the nearest 5 mg since rosuvastatin is available in 5, 10, 20 and 40 mg tablets (purchased from AstraZeneca, Canada). Oral administration of rosuvastatin was once daily if daily dose was <80 mg, twice if 81–160 mg, three times a day if 161–240 mg and four times a day if >240 mg daily dose. […] No prophylactic medications were supplied. Standard supportive care medications were allowed. Oral supplementation of ubiquinone at 60 mg po QID was initiated if patient developed grade 3 or 4 muscle toxicity and continued until recovery to baseline.
A 3 + 3 dose escalation phase I study design was used, with 3 patients planned at each cohort. […] All 3 patients at a given dose level needed to complete the first cycle of treatment without suffering DLT before new patients were enrolled at the next dose level. The lead patient at each new dose level completed the first cycle of treatment before other patients were enrolled at the same dose level. If 1/3 initial patients at each dose experienced a DLT, then the treatment level was expanded to at least 6 patients. […] There was no dose escalations allowed within individual patients. If >2 patients at any dose level experienced DLT, then that level was considered to have exceeded the maximal tolerated dose (MTD), and the level immediately preceding that level was designated as MTD and RPTD.
A further series relates to CYP3A4. Conditions: cited from earlier work.
[5] abbreviates: concurrent rosuvastatin + erlotinib.

Entries after “also recorded” stand apart in the source; their conditions may differ. Read-outs that look alike come from different tables or passages of the source. Marks after values point to notes of the source that are not given here.

In the case of `CC[C@H](C)C(=O)O[C@H]1C[C@@H](C)C=C2C=C[C@H](C)[C@H](CC[C@@H]3C[C@@H](O)CC(=O)O3)[C@H]21` [lovastatin], the “Clinical efficacy as an anticancer therapy” value in series [1] is given as “failed to demonstrate clinical efficacy”. In addition, the DLT of lovastatin result in the series with recurrent SCC patients (prolonged oral administration, recurrent SCC) is “reversible muscle toxicity”. In the series with recurrent SCC patients (single agent lovastatin, SCC patients), the “Patients with disease stabilization lasting greater than 3 months” value is reported as 23%. Besides, in the series on recurrent SCC patients (single agent lovastatin, of the 5 patients with muscle DLT), the “Dose-limiting muscle toxicities greater than grade 2 in severity” value was 2. For the same compound, the “Patients with reversible dose-limiting muscle toxicities” value in the series with recurrent SCC patients (single agent lovastatin, of the 24 patients enrolled) was 5 patients.
In the case of `C#Cc1cccc(Nc2ncnc3cc(OCCOC)c(OCCOC)cc23)c1` [erlotinib], the time of peak concentration (Tmax) worked out at 6 h in series [2] (erlotinib (+rosuvastatin 1 mg/kg/day) (day 14), individual Schedule A patients 14-18) and 6 h in series [2] (erlotinib alone (day 6), 150 mg/day, individual Schedule A patients 13-18). The “Half-life of erlotinib on addition of rosuvastatin” value in series [2] (human, in vivo) is “unaffected”. Further, the half-life in series [2] (human, in vivo, 150 mg/day) is 18.1 h; in series [2] (human, in vivo, 150 mg/day, t 1/2, erlotinib alone (day 6), 150 mg/day, individual Schedule A patients 13-18) it was 25.7 h; in series [2] (human, in vivo, t1/2), 24.3 h. In addition, the “Erlotinib AUC, day 6 (alone) versus day 14 (+rosuvastatin)” value in series [2] (in vivo) is given as “did not differ significantly”. The “Erlotinib Cmax and Tmax, day 6 versus day 14 (+rosuvastatin)” value in series [2] (in vivo) is given as “similar”. Also, the “Plasma erlotinib levels on addition of rosuvastatin” value in series [2] (in vivo) is reported as “unaffected”.
On to `CCC(C)(C)C(=O)O[C@H]1C[C@@H](C)C=C2C=C[C@H](C)[C@H](CC[C@@H]3C[C@@H](O)CC(=O)O3)[C@H]21` [simvastatin], for which the “Response rates and PFS compared to gefitinib alone” value in the series with NSCLC patients was “higher response rates and longer PFS”.
As to `CC(C)c1nc(N(C)S(C)(=O)=O)nc(-c2ccc(F)cc2)c1/C=C/[C@@H](O)C[C@@H](O)CC(=O)O` [rosuvastatin], in the series on advanced solid tumours (setting [5]), the “Patients with durable stable disease, NSCLC” value is given as 2/4; the “Patients with durable stable disease, genitourinary (GU) cancer (vaginal squamous epithelial carcinoma)” value was 1/4; the “Patients with durable stable disease, pancreatic cancer (neuroendocrine tumour)” value is listed as 1/2. Besides, in the series on advanced solid tumours (concurrent rosuvastatin + erlotinib (Cohorts 1, 2 and Schedule A)), the “Evaluable patients on study for greater than 170 days” value is recorded as 4/16. In the series on advanced solid tumours (concurrent rosuvastatin + erlotinib, 16 evaluable), the “Patients on study for greater than 275 days” value stood at 3 patients. Besides, the “Durable stable disease for more than 170 days (rate)” value with advanced solid tumours (concurrent rosuvastatin + erlotinib, evaluable for response n = 16) is 25%. For the same compound, in the series with advanced solid tumours (concurrent treatment regimens, rosuvastatin + erlotinib), the “Patients with disease stabilization greater than 6 months” value is 4/16. The “Objective responses (RECIST)” value with advanced solid tumours (rosuvastatin + erlotinib, 22 evaluable patients) is reported as “No objective responses; also recorded: absence of objective responses”. The “Patients with elevated CPK levels during rosuvastatin treatments” value in series [3] (1 mg/kg/day dose + erlotinib) is listed as 1 out of 16. In addition, the “Patients with elevated CPK levels during rosuvastatin treatments” value in series [3] (2 mg/kg/day dose (Cohort 2) + erlotinib) was 4 out of the 8. Also, in series [3] (day 28 (erlotinib and rosuvastatin 2 mg/kg/day), increased from 60 U/L), the “Serum CPK level in the patient with rhabdomyolysis” value is “over 2000 U/L”. For the same compound, in series [3] (rosuvastatin + erlotinib, even in patients on study greater than 170 days), the “Change in serum cholesterol, LDL or HDL levels” value is reported as “did not result in significant changes”. Besides, in series [4] (human, in vivo), the “Anorexia, ≥Grade 2” value was 62.5%; the “Anxiety, ≥Grade 2” value amounted to 4.2%; the “Diarrhea, ≥Grade 2” value came out at 20.8%; the “Fatigue, ≥Grade 2” value worked out at 75.0%. In series [4] (human, in vivo), the “Muscle weakness, ≥Grade 2” value is 41.7%; the “Myalgia, ≥Grade 2” value was found to be 29.2%; the “Nausia, ≥Grade 2” value worked out at 16.7%; the “Rash, ≥Grade 2” value was found to be 29.2%. Further, in series [4] (human, in vivo), the “Rhabdomyolysis, ≥Grade 2” value is recorded as 4.2^a %; the “Vomiting, ≥Grade 2” value is given as 16.7%; the “Weight loss, ≥Grade 2” value was 16.7%. In series [4] (rosuvastatin 2 mg/kg/day + erlotinib, 8 evaluable patients), the “Patients who developed rhabdomyolysis (study related death)” value is recorded as “single patient out of 8”. Besides, the CYP3A4 substrate result in the series on CYP3A4 (ref 32) was “non-CYP3A4 substrate”. In the series on CYP3A4 (ref 33), the CYP3A4 substrate result is reported as “not a CYP3A4 substrate”.

As a reminder, the Tmax is the time from dosing to the highest level. Broadly, the half-life is the time in which the quantity being followed falls by half. Read a high half-life as slow loss.
